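Following 48 hours of exposure in 96-well plates, responses at five concentrations were used to interpolate endpoints linearly. Abbreviation: GI50, concentration required for 50% inhibition of growth. TGI denotes the concentration required for complete inhibition of growth.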
What was measured:
Test in all cases: NCI-60 cell line screen, 48 h
SK-MEL-28 melanoma = test system: SK-MEL-28 melanoma
LOX IMVI melanoma = test system: LOX IMVI melanoma
OVCAR-5 ovarian = test system: OVCAR-5 ovarian
MDA-MB-435 = test system: MDA-MB-435
NCI-H522 lung = test system: NCI-H522 lung
RXF 393 renal = test system: RXF 393 renal
SK-OV-3 ovarian = test system: SK-OV-3 ovarian

Compound	GI50 (SK-MEL-28 melanoma) [µM]	TGI (SK-MEL-28 melanoma) [µM]	GI50 (LOX IMVI melanoma) [µM]	TGI (LOX IMVI melanoma) [µM]	GI50 (OVCAR-5 ovarian) [µM]	TGI (OVCAR-5 ovarian) [µM]	GI50 (MDA-MB-435) [µM]	TGI (MDA-MB-435) [µM]	GI50 (NCI-H522 lung) [µM]	TGI (NCI-H522 lung) [µM]	GI50 (RXF 393 renal) [µM]	TGI (RXF 393 renal) [µM]	TGI (SK-OV-3 ovarian) [µM]	GI50 (SK-OV-3 ovarian) [µM]
CC(C)(C)OC(=O)CC(S(=O)(=O)c1ccccc1)S(=O)(=O)c1ccccc1	12.9	25.6	13.8	33.2	17.4	32.7	13.8	26.7	1.65	3.53	1.8	3.31	–	–
COc1ccc(N=C2C(=O)Nc3ccc(Br)cc32)cc1	–	84.6	–	27.4	–	58	–	27.4	–	24.9	–	36.9	75.3	–
Cc1nc2sc(C(=O)Nc3cccc(Cl)c3)c(N)c2cc1C(O)c1ccccc1 (centres undefined)	3.12	22.3	0.687	22.5	2.41	18.1	0.203	0.465	1.15	18.3	0.722	11.5	16.1	1.22
OCCN1CCCN(CCCN2c3ccccc3Sc3ccc(C(F)(F)F)cc32)CC1	1.64	3.03	1.73	3.21	3.21	15	1.67	3.33	3.23	14	2.59	11.2	18.4	5.29
COc1ccc([C@H]2c3[nH]c4ccccc4c3C[C@H]3C(=O)N(CCCCCCC(=O)NO)CC(=O)N23)cc1	1.29	> 33.3	1.54	5.91	1.49	> 33.3	3.32	15.1	1.4	> 33.3	1.33	6.12	> 33.3	3.02
COc1cc(C(=O)Nc2ccc(-c3nc4ccccc4[nH]3)cc2)cc(OC)c1OC	13.7	28.6	11.2	30.9	11.7	26.3	13.5	31	7.75	29.9	10.7	30.9	30.6	16.5
C=C(c1ccc(C(=O)NCCCn2ccnc2)cc1)c1cc2c(cc1C)C(C)(C)CCC2(C)C	1.71	6.38	0.395	4.48	0.953	12.7	0.0734	16	0.123	3.72	1.71	4.71	5.59	2.09
COC(=O)c1sc(=S)c2sc(C(=O)OC)c(C(=O)OC)c2c1C(=O)OC	71.8	> 100	46.3	> 100	92.2	> 100	51.3	> 100	31	91.5	41.7	> 100	> 100	> 100
O=C(NCCNC1=CC(=O)c2nc3ccccc3c3ccnc1c23)c1cnccn1	40.9	> 100	33.9	> 100	> 100	> 100	14.5	63.2	44	> 100	–	–	> 100	> 100
COc1cc(/C=C/C(=O)/C=C/c2ccc(-n3ccnc3)cc2)ccc1O	2.42	6.49	1.74	3.19	16.6	33.9	2.21	5.14	4.98	18.9	1.81	3.42	36.1	6.07
COc1ccc(C2=NOC3=c4ccccc4=CSC3=C2c2ccccc2)cc1	37.7	> 100	44.8	> 100	80.1	> 100	42.9	> 100	> 100	> 100	22.2	63.7	> 100	> 100
O=C(Nc1ccc(-n2cc(-c3ccncc3)c(-c3ccc(Cl)c(O)c3)n2)cc1)c1ccc(Cl)c(Cl)c1	2.94	> 100	–	–	10.2	> 100	2.73	> 100	5.34	> 100	–	–	> 100	2.08
Cc1ncc([N+](=O)[O-])n1CCOc1ccc(C(=O)/C=C/c2ccc(C(F)(F)F)cc2)cc1	10.2	21.9	2.21	5.6	2.93	14.4	3.56	13.9	2.55	7.74	4.54	17.6	15.3	4.13
O=C(Cc1csc2nc(-c3ccc(Br)cc3)cn12)N/N=C/c1ccccc1O	11.9	24.2	3.47	13	5.51	31.9	3.33	13.6	5.27	27.2	37.7	62.5	30.2	12.8
CSc1ccc2c(c1)N(CCCN(C)C)c1ccccc1S2	–	6.7	–	32.4	–	30.9	–	17	–	26.6	–	22.5	29.4	–
CC(=O)Nc1ccc2c(c1)[nH]c(=O)c1cc(Cl)ccc12	–	> 100	–	> 100	–	> 100	–	> 100	–	> 100	–	–	> 100	–
CC[C@]1(O)C[C@@H]2CN(CCc3c([nH]c4ccccc34)[C@@](C(=O)OC)(c3cc4c(cc3OC)N(C)[C@H]3[C@@](O)(C(=O)OC)[C@H](OC(=O)CCCBr)[C@]5(CC)C=CCN6CC[C@]43[C@@H]65)C2)C1	–	–	–	–	< 0.023	> 100	< 0.01	< 0.01	–	–	< 0.01	< 0.01	> 22.2	0.306
c1ccc(-c2nc3ccccc3[nH]2)c(OCCCCCOc2ccccc2-c2nc3ccccc3[nH]2)c1	3.07	14	12.9	29.8	20.2	62.6	11.3	29.3	5.46	39.1	–	–	34	14.2

Source: PubChem BioAssay (NCI)
